Positions count from the first letter of the chain named.
Columns and labels:
[1] = target: T1, KIF5B-RET mutant form G810S in HEK293 cells (Homo sapiens, UniProt P07949, G810S); test: RET cell assay (In-Cell Western, phospho-RET Y1062), G810S; assay type: cell-based; details: HEK293, doxycycline-induced KIF5B-RET G810S, 1 hr compound treatment; read-out: EC50, inhibition of intracellular autophosphorylation of RET at tyrosine 1062, G810S cells
T1 construct: expressed in transfected cells; host or cells: HEK293; the other entry of the earlier key: KIF5B (P33176, Kinesin-1 heavy chain)
T1 sequence (P07949 713-1063 G810S limits assumed): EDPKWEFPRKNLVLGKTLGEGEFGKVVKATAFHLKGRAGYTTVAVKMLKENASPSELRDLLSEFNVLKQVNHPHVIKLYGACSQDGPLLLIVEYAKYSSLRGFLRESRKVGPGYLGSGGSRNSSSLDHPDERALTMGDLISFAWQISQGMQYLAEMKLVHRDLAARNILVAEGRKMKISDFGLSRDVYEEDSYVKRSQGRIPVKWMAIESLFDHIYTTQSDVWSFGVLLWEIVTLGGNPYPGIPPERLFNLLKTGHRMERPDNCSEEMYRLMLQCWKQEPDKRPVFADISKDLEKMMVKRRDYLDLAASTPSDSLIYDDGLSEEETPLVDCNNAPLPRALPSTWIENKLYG
Description: (§1) Compounds of formulas (I), (II), and (III) are screened for their ability to inhibit the intracellular autophosphorylation of RET at tyrosine 1062 as detected by In-Cell Western. HEK293 cells containing a doxycycline-inducible plasmid for inducible expression of KIF5B-RET WT and RET mutant forms V804M and G810S are seeded at 25,000 cells/well into black poly-D-lysine pre-coated 384-well plates (Corning, Catalog No. 356697). Expression of KIF5B-RET is induced with doxycycline at 1 μg/mL and cells are incubated at 37° C. overnight. Compounds are prepared in a threefold serial dilution in DMSO before further diluting 1:100 in media prior to the addition to the cells (0.1% final DMSO concentration). Compound treatment is performed for 1 hr at 37° C. followed by fixation of cells with 4% formaldehyde for 20 min at RT and cell permeabilisation with ice-cold MeOH for 10 min at RT. Cells are incubated with Intercept® blocking buffer (Li—COR, Catalogue No. 927-70010) for 1 hr at RT. Incubation with primary antibodies against human phospho-RET (Y1062) (R&D, Catalogue No. AF5009, 1/250 dilution) and human glyceraldehyde-3-phosphate dehydrogenase (clone 6C5, Merck, Catalog No. MAB374, 1/1000 dilution) are performed overnight at 4° C. Incubation with secondary antibodies IRDye® 800CW goat anti-rabbit IgG (Li—COR, Catalogue No. 926-32211, 1/1000 dilution) and IRDye® 680CW goat anti-mouse IgG (Li—COR, Catalogue No. 926-68070, 1/1000 dilution) are performed for 1 hr at RT. All antibody dilutions are done in Intercept® blocking buffer containing 0.05% Tween20. After washing cells with PBS-T (Cell Signaling technology, Catalogue No. 9809), the images are acquired on a Li—COR Odyssey LCx at 700 and 800 nm. Percent of DMSO control is calculated with 100% signal referring to control conditions containing no compound (0.4% DMSO only) and 0% signal represented by conditions containing control compound. The % of DMSO control values are fit to a 4 parameter logistic curve, and the determined EC50 value is defined as the estimated concentration of inhibitor at the inflexion point of the fitted curve.

[2] = target: T2, KIF5B-RET mutant form V804M in HEK293 cells (Homo sapiens, UniProt P07949, V804M); test: RET cell assay (In-Cell Western, phospho-RET Y1062), V804M; assay type: cell-based; details: HEK293, doxycycline-induced KIF5B-RET V804M, 1 hr compound treatment; read-out: EC50, inhibition of intracellular autophosphorylation of RET at tyrosine 1062, V804M cells
T2 construct: expressed in transfected cells; host or cells: HEK293; the other entry of the earlier key: KIF5B (P33176, Kinesin-1 heavy chain)
T2 sequence (P07949 713-1063 V804M limits assumed): T1 sequence (P07949 713-1063 G810S limits assumed) with V92M, S98G
Description: as §1

[3] = target: T3, KIF5B-RET WT in HEK293 cells (Homo sapiens, UniProt P07949); test: RET cell assay (In-Cell Western, phospho-RET Y1062), wildtype; assay type: cell-based; details: HEK293, doxycycline-induced KIF5B-RET WT, 1 hr compound treatment; read-out: EC50, inhibition of intracellular autophosphorylation of RET at tyrosine 1062, wildtype cells
T3 construct: expressed in transfected cells; host or cells: HEK293; the other entry of the earlier key: KIF5B (P33176, Kinesin-1 heavy chain)
T3 sequence (P07949 713-1063 limits assumed): T1 sequence (P07949 713-1063 G810S limits assumed) with S98G
Description: as §1

SMILES	EC50 [1] [nM]	EC50 [2] [nM]	EC50 [3] [nM]	melting point [°C]
CC(C(=O)Nc1cc(C(C)(C)C(F)(F)F)on1)c1ccc(-c2nn(C3(C)CC3)c(N)c2C(N)=O)nc1 (single isomer, unassigned; isomer 1) [Example 31, 5-Amino-1-(1-methylcyclopropyl)-3-[5-[(1-[[5-[1,1,1-trifluoro-2-methylpropan-2-yl)-1,2-oxazol-3-yl]carbamoyl]ethyl]pyridin-2-yl]pyrazole-4-carboxamide, Isomer 1]	< 100	< 100	< 100	
CC(C(=O)Nc1cc(CC(C)(C)C)no1)c1ccc(-c2nn(C3(C)CC3)c(N)c2C(N)=O)nc1 (single isomer, unassigned; isomer 1) [Example 33, 5-Amino-3-[5-[1-[[3-(2,2-dimethylpropyl)-1,2-oxazol-5-yl]carbamoyl]ethyl]pyridin-2-yl]-1-(1-methylcyclopropyl)pyrazole-4-carboxamide, Isomer 1]	< 100	< 100	< 100	
CC(C(=O)Nc1cc(CC(C)(C)C)no1)c1ccc(-c2nn(C(C)C)c(N)c2C(N)=O)cc1 (single isomer, unassigned; isomer 2) [Example 2, 5-Amino-3-[4-(1-[[3-(2,2-dimethylpropyl)-1,2-oxazol-5-yl]carbamoyl]ethyl)phenyl]-1-isopropylpyrazole-4-carboxamide, Isomer 2]				128

From US11613533B2, “Compounds useful for inhibiting RET kinase” (Eli Lilly and Company, priority 2020, dated 2023)
